Laboratory results taken from patent US7498343B2, “Mycobacterial inhibitors” (priority 2002, dated 2009).
Converted amounts (≈) assume the structure as drawn. Like-named read-outs stand apart in the source and are kept apart here.

Legend:
M. Smegmatis ATCC607 = experiment: In-vitro method for testing compounds for anti-bacterial activity against strain M. smegmatis ATCC607 (Alamar Blue growth inhibition); assay type: cell-based; conditions: M. smegmatis ATCC607, pIC50 = -logIC50, IC50 in M, 50% inhibitory concentration for bacterial growth, 48 hours incubation
Procedure: C.2. In-vitro Method for Testing Compounds for Anti-bacterial Activity Against Strain M. Smegmatis ATCC607. […] Subsequently, stock solutions (7.8×final test concentration) of compounds were added in 45 μl volumes to a series of duplicate wells in column 2 so as to allow evaluation of their effects on bacterial growth. Serial five-fold dilutions (45 μl in 180 μl) were made directly in the microtiter plates from column 2 to 11 using a customised robot system (Zymark Corp., Hopkinton, Mass.). Pipette tips were changed after every 3 dilutions to minimize pipetting errors with high hydrophobic compounds. Untreated control samples with (column 1) and without (column 12) inoculum were included in each microtiter plate. Approximately 250 CFU per well of bacteria inoculum, in a volume of 100 μl in 2.8×Mueller-Hinton broth medium, was added to the rows […]. The same volume of broth medium without inoculum was added to column 12 in row A to H. The cultures were incubated at 37° C. for 48 hours in a humidified 5% CO2 atmosphere (incubator with open air valve and continuous ventilation). At the end of incubation, two days after inoculation, the bacterial growth was quantitated fluorometrically. Therefore Alamar Blue (10×) was added to all wells in a volume of 20 μl and plates were incubated for another 2 hours at […] The fluorescence was read in a computer-controlled fluorometer (Cytofluor, Biosearch) at an excitation wavelength of 530 nm and an emission wavelength of 590 nm (gain 30). The % growth inhibition achieved by the compounds was calculated according to standard methods.

[1] = system: Mycobacterium tuberculosis (strain H37RV); experiment: In-vitro method for testing compounds against M. tuberculosis (resazurin growth inhibition, MIC); assay type: cell-based; conditions: MIC data representing IC90's, 7 days incubation, resazurin fluorescence
[2] = Mycobacterium tuberculosis, H37RV, 168 h, read-out: MIC

| Structure (SMILES) | pIC50 (M. Smegmatis ATCC607) | MIC [1] [microgram/ml] | MIC [1, 2] [µg/mL] | IC50 (M. Smegmatis ATCC607; Mycolicibacterium smegmatis, ATCC607, 48 h, read-out: pIC50 (converted)) [µM] |
| --- | --- | --- | --- | --- |
| COc1nc2ccc(Br)cc2cc1C(c1ccccc1)C(O)(CCN1CCN(C)CC1)c1ccccc1 (racemic) [Compound 51] | 5.8 |  |  |  |
| COc1nc2cc(C)c(Br)cc2cc1C(c1ccccc1)C(O)(CCN(C)C)c1cc(F)cc(F)c1 (single isomer, unassigned) [Compound 228] | 5.1 | 8.80 |  |  |
| COc1nc2ccc(Br)cc2cc1C(c1ccccc1)C(O)(CCN1CCOCC1)c1cccc2ccccc12 (single isomer, unassigned) [Compound 158] | 5.3 | 59.76 |  |  |
| COc1nc2ccc(-c3cc4ccccc4s3)cc2cc1C(c1ccccc1)C(O)(CCN(C)C)c1cccc(F)c1 (single isomer, unassigned) [Compound 204] | 5.4 | 9.14 |  |  |
| COc1nc2ccc(Br)cc2cc1C(c1ccccc1)C(O)(CCN(C)C)c1cccc(F)c1 (stereo not drawn) [Compound 109] | 8.2 | 0.33 |  |  |
| COc1nc2ccc(Br)cc2cc1C(c1ccccc1)C(O)(CCN(C)C)c1cc(F)ccc1F (stereo not drawn) [Compound 111] | 6.4 | 1.71 |  |  |
| COc1nc2ccccc2cc1C(c1ccccc1)C(O)(CCN(C)C)c1cccc2ccccc12 (racemic) [Compound 92] | 6.5 | 7.55 |  |  |
| COc1nc2ccc(Br)cc2cc1C(c1ccccc1)C(O)(CC[N+](C)(C)C)c1ccccc1.[I-] (racemic) [Compound 57] | 5.4 | 25.77 |  |  |
| COc1nc2ccc(Br)cc2cc1C(c1ccccc1)C(O)(CCN1CCCC1)c1ccc2cc(Br)ccc2c1 (single isomer, unassigned) [Compound 157] | 5.6 | 52.46 |  |  |
| COc1nc2ccc(Br)cc2cc1C(c1ccccc1)C(O)(CCn1cncn1)c1ccccc1 (racemic) [Compound 53] | 5.1 | 52.94 |  |  |
| CCN(CC)CCC(O)(c1ccccc1)C(c1ccccc1)c1cc2cc(Br)ccc2nc1OC (stereo not drawn) [Compound 18] |  |  | 10.6 (≈ 19.9 µM) | 0.2 |
| COc1nc2ccc(Br)cc2cc1C(c1ccccc1)C(O)(CCN1CCN(C)CC1)c1ccc2cc(Br)ccc2c1 (single isomer, unassigned) [Compound 154] | 4.9 | 68.95 |  |  |
| COc1nc2ccc(Br)cc2cc1C(c1ccccc1)C(O)(CCN(C)C)c1cc(F)ccc1F (stereo not drawn) [Compound 67] | 8.6 | 0.34 |  |  |
| COCCOc1nc2ccc(Br)cc2cc1C(c1ccccc1)C(O)(CCN(C)C)c1cccc2ccccc12 (single isomer, unassigned) [Compound 176] | 6.8 | 9.50 |  |  |
| COc1nc2ccc(Br)cc2cc1C(c1ccccc1)C(O)(CCN(C)C)c1cc(F)ccc1F (stereo not drawn) [Compound 68] | 6.4 |  |  |  |
| CCN(C)CCC(O)(c1ccc2ccccc2c1)C(c1ccccc1)c1cc2cc(Br)ccc2nc1OC (stereo not drawn) [Compound 141] | 7.3 |  | 9.03 (≈ 15.9 µM) |  |
| COc1nc2ccc(Br)cc2cc1C(c1ccccc1)C(O)(CN(C)C)c1ccccc1 (single isomer, unassigned) [Compound 61] | 4.5 | 39.04 |  |  |
| COc1nc2ccc(Br)cc2cc1C(c1ccccc1)C(O)(CC[N+](C)(C)C)c1cccc2ccccc12.[I-] (racemic) [Compound 103] | 5.9 | 5.54 |  |  |
| COc1nc2ccc(Br)cc2cc1C(c1ccc(F)cc1)C(O)(CCN(C)C)c1cccc2ccccc12 (racemic) [Compound 205] | 7.2 | 4.56 |  |  |
| CCN(C)CCC(O)(c1cccc2ccccc12)C(c1ccccc1)c1cc2cc(Br)ccc2nc1OC (stereo not drawn) [Compound 147] | 7.4 | 11.36 |  |  |
| COc1nc2ccc(Br)cc2cc1C(c1ccccc1)C(O)(CCN(C)C)c1cc(F)cc(F)c1 (stereo not drawn) [Compound 116] | 6.6 | 8.58 |  |  |
| COc1nc2ccc(Br)cc2cc1C(c1ccc(Cl)cc1)C(O)(CCN(C)C)c1ccccc1 (single isomer, unassigned) [Compound 36] | 6.4 | 5.40 |  |  |
| COc1nc2ccc(Br)cc2cc1C(c1ccccc1)C(O)(CCN(C)C)c1c(F)cccc1F (single isomer, unassigned) [Compound 167] | 5.5 | 43.01 |  |  |
| COc1nc2ccc(Br)cc2cc1C(c1ccccc1)C(O)(CCN(C)C)c1ccccc1 (stereo not drawn) [Compound 2] | 6.8 |  |  |  |

| Structure (SMILES) | pIC50 (M. Smegmatis ATCC607) | MIC [1] [microgram/ml] | MIC [1, 2] [µg/mL] | IC50 (M. Smegmatis ATCC607; Mycolicibacterium smegmatis, ATCC607, 48 h, read-out: pIC50 (converted)) [µM] |
| --- | --- | --- | --- | --- |
| COc1nc2ccccc2cc1C(c1ccccc1)C(O)(CCN(C)C)c1cccc(F)c1 (racemic) [Compound 93] | 4.8 | 35.31 |  |  |
| CCN(CC)CCC(O)(c1ccccc1)C(c1ccccc1)c1cc2cc(Br)ccc2nc1OC (stereo not drawn) [Compound 19] | 6.5 | 6.72 |  |  |
| COc1nc2ccc(-c3ccccc3)cc2cc1C(c1ccccc1)C(O)(CCN(C)C)c1cccc2ccccc12 (racemic) [Compound 85] | 5.9 | 8.76 |  |  |
| COc1ccc2nc(OC)c(C(c3ccccc3)C(O)(CCN(C)C)c3cccc(F)c3)cc2c1 (single isomer, unassigned) [Compound 135] | 7.4 | 1.50 |  |  |
| COc1nc2ccc(C#N)cc2cc1C(c1ccccc1)C(O)(CCN(C)C)c1cccc(F)c1 (single isomer, unassigned) [Compound 180] | 6.6 | 3.73 |  |  |
| COc1nc2ccc(Br)cc2cc1C(c1ccccc1)C(O)(CCCN1CCCC1)c1ccc2ccccc2c1 (single isomer, unassigned) [Compound 132] | 4.4 | 47.31 |  |  |
| COc1nc2ccc(-c3ccco3)cc2cc1C(c1ccccc1)C(O)(CCN(C)C)c1cccc(F)c1 (single isomer, unassigned) [Compound 175] | 6.5 | 10.19 |  |  |
| COc1nc2ccc(Br)cc2cc1C(c1ccccc1)C(O)(CC[N+](C)(C)C)c1cccc2ccccc12.[I-] (single isomer, unassigned) [Compound 102] | 6.5 | 2.21 |  |  |
| COc1nc2ccc(Br)cc2cc1C(c1ccccc1)C(O)(CCN(C)C)C1CCN(C(=O)c2ccccc2)CC1 (single isomer, unassigned) [Compound 201] | 5.7 | 9.77 |  |  |
| CCN(C)CCC(O)(c1ccc2ccccc2c1)C(c1ccccc1)c1cc2cc(Br)ccc2nc1OC (stereo not drawn) [Compound 142] | 6.2 | 9.03 |  |  |
| CN(C)CCC(O)(c1ccccc1)C(c1ccccc1)c1cc2cc(Br)ccc2nc1O (single isomer, unassigned) [Compound 60] | 5.6 |  |  |  |
| COc1nc2ccc(Br)cc2cc1C(c1ccccc1)C(O)(CCn1ccnc1)c1cccc2ccccc12 (single isomer, unassigned) [Compound 187] |  | 57.85 |  |  |
| COc1nc2ccc(Br)cc2cc1C(c1ccccc1)C(O)(CCCN1CCOCC1)c1ccc2ccccc2c1 (single isomer, unassigned) [Compound 161] |  | 61.16 |  |  |
| COc1nc2ccc(Br)cc2cc1C(c1ccccc1)C(O)(CCN(C)C)c1cccc(F)c1 (stereo not drawn) [Compound 108] | 7.0 |  |  |  |
| COc1nc2ccc(Br)cc2cc1C(c1ccccc1)C(O)(CCN(C)C)c1ccccc1 (stereo not drawn) [Compound 4] | 5.7 |  |  |  |
| COc1nc2ccc(Br)cc2cc1C(c1ccccc1)C(O)(CCN1CCOCC1)c1ccc2cc(Br)ccc2c1 (single isomer, unassigned) [Compound 177] |  | 67.65 |  |  |
| CN(C)CCC(O)(c1ccccc1)C(c1ccccc1)c1cc2cc(Br)ccc2n2ccnc12 (single isomer, unassigned) [Compound 104] | 6.6 |  |  |  |
| COc1nc2ccc(Br)cc2cc1C(c1ccccc1)C(O)(CCN1CCN(c2ncccn2)CC1)c1ccc2ccccc2c1 (single isomer, unassigned) [Compound 209] |  | 67.47 |  |  |
| CN(C)CCC(O)(c1ccccc1)C(c1ccccc1)c1cc2cc(Br)ccc2nc1O (single isomer, unassigned) [Compound 59] | 5.1 |  |  |  |
| COc1nc2ccc(Br)cc2cc1C(c1ccccc1)C(O)(CCN(C)C)c1ccccc1 (stereo not drawn) [Compound 1] | 7.3 |  |  |  |
| COc1nc2ccc(Br)cc2cc1C(c1ccccc1)C(O)(CCN1CCCCC1)c1ccc2ccccc2c1 (stereo not drawn) [Compound 128] |  | 59.56 |  |  |
| COc1nc2ccc(Br)cc2cc1C(c1ccccc1)C(O)(CCN(C)C)c1ccccc1 (stereo not drawn) [Compound 3] | 6.7 |  |  |  |
| CN(C)CCC(O)(c1ccccc1)C(c1ccccc1)c1cc2cc(Br)ccc2n2ccnc12 (single isomer, unassigned) [Compound 105] | 6.0 |  |  |  |
